Test in all cases: Agar dilution test (Isosensitest agar), MIC
What all share (type): cell-based

In one experiment the test system is E.coli 455/7. The note with it: Escherichia coli; strain E.coli 455/7; Agardilutionstest/Isosensitestagar; read-out: MHK.
In another experiment the test system is Providenicia 12052. The settings on record: read-out: MHK. An excerpt: (§1) In der nachstehenden Tabelle sind einige MHK-Werte im Vergleich zu 1-Cyclopropyl-6-fluor-1,4-dihydro-4-oxo-7-(1-piperazinyl)-3-chinolincarbonsäure (Ciprofloxacin) angegeben: […]
The test system of another experiment is Staph. aur. 133. The settings on record: strain Staph. aur. 133; Agardilutionstest/Isosensitestagar; read-out: MHK.
Text: as §1

For the next experiment, the system named is Staph. aur. 1756. The settings on record: strain Staph. aur. 1756; Agardilutionstest/Isosensitestagar; read-out: MHK.
Text: as §1

A further experiment deals with Staph. aur. FK 422. The note with it: strain Staph. aur. FK 422; Agardilutionstest/Isosensitestagar; read-out: MHK.
Text: as §1

The next experiment has as its system Streptoc. faecal. 27101. The settings on record: strain Streptoc. faecal. 27101; Agardilutionstest/Isosensitestagar; read-out: MHK.
Text: as §1

In a further experiment the test system is Streptoc. faecal. 9790. The note with it: strain Streptoc. faecal. 9790; Agardilutionstest/Isosensitestagar; read-out: MHK.
Text: as §1

The test system of a further experiment is Pseudomonas aerug. W. The settings on record: strain Pseudomonas aerug. W.; Agardilutionstest/Isosensitestagar; read-out: MHK.
Where [1] appears, read: strain Providenicia 12052, Agardilutionstest/Isosensitestagar.

Converted amounts (≈) assume the structure as drawn. Counter-ions that a name gives are not always drawn. Like-named read-outs stand apart in the source and are kept apart here.

Regarding `O=C(O)c1cn(C2CC2)c2c(Cl)c(N3CCN4CCC3C4)c(F)cc2c1=O` (stereo not drawn) [Beispiel 3, 8-Chlor-1-cyclopropyl-7-(1,4-diazabicyclo[3.2.1]ocl-4-yl)-6-fluor-1,4-dihydro-4-oxo-3-chinolincarbonäure-Hydrochlorid-Hydrat], the MIC in the experiment on E.coli 455/7 came out at 0.5 mg/L; in the experiment with Providenicia 12052 (setting [1]) it was 8 mg/L; in the experiment on Staph. aur. 133, 0.06 mg/L; in the experiment with Staph. aur. 1756, 0.06 mg/L; in the experiment on Staph. aur. FK 422, 0.06 mg/L; with Streptoc. faecal. 27101, 0.06 mg/L. For the same molecule, the MIC with Streptoc. faecal. 9790 turned out to be 0.06 mg/L.

For the molecule `CN1C2CCC1CN(c1cc3c(cc1F)c(=O)c(C(=O)O)cn3C1CC1)C2` [Beispiel 12, 1-Cyclopropyl-6-fluor-1,4-dihydro-7-(8-methyl-3,8-diazabi-cyclo[3.2.1]oct-3-yl)-4-oxo-3-chinolincarbonsäure], the MIC was determined as 4 mg/L (≈ 10.8 µM) in the experiment with E.coli 455/7, 16 mg/L (≈ 43.1 µM) in the experiment on Providenicia 12052 and 0.5 mg/L (≈ 1.35 µM) in the experiment with Pseudomonas aerug. W..

Turning to `O=C(O)c1cn(C2CC2)c2cc(N3CCNCC3)c(F)cc2c1=O` [Ciprofloxacin, 1-Cyclopropyl-6-fluor-1,4-dihydro-4-oxo-7-(1-piperazinyl)-3-chinolincarbonsäure, reference compound], the MIC with E.coli 455/7 was 2 mg/L (≈ 6.04 µM); with Providenicia 12052 (setting [1]), 32 mg/L (≈ 96.6 µM); with Staph. aur. 133 it was 0.5 mg/L (≈ 1.51 µM); with Staph. aur. 1756 it was 0.5 mg/L (≈ 1.51 µM); in the experiment on Staph. aur. FK 422 it was 0.5 mg/L (≈ 1.51 µM); in the experiment with Streptoc. faecal. 27101, 0.5 mg/L (≈ 1.51 µM). For the same molecule, the MIC in the experiment on Streptoc. faecal. 9790 came to 0.25 mg/L (≈ 0.754 µM); with Pseudomonas aerug. W. it was 0.5 mg/L (≈ 1.51 µM).

On to `O=C(O)c1cn(C2CC2)c2c(F)c(N3CCN4CCC3C4)c(F)cc2c1=O` (stereo not drawn) [Beispiel 4, 1-Cyclopropyl-7-(1,4-diazabicyclo[3.2.1]oct-4-yl)-6,8-difluor-1,4-dihydro-4-oxo-3-chinolincarbonsäure], for which the MIC in the experiment on E.coli 455/7 is 0.5 mg/L (≈ 1.33 µM); in the experiment on Providenicia 12052 (setting [1]), 8 mg/L (≈ 21.3 µM); in the experiment on Staph. aur. 133, 0.06 mg/L (≈ 0.16 µM); in the experiment with Staph. aur. 1756, 0.06 mg/L (≈ 0.16 µM); with Streptoc. faecal. 9790, 0.25 mg/L (≈ 0.666 µM); in the experiment on Pseudomonas aerug. W. it was 0.5 mg/L (≈ 1.33 µM).

Turning to `O=C(O)c1cn(C2CC2)c2cc(N3CCN4CCC3C4)c(F)cc2c1=O` (stereo not drawn) [Beispiel 1, 1-Cyclopropyl-7-(1,4-diazabicyclo[3.2.1]oct-4-yl)-6-fluor-1,4-dihydro-4-oxo-3-chinolincarbonsäureHydrochlorid], the MIC with E.coli 455/7 amounted to 2 mg/L; in the experiment on Staph. aur. 1756, 0.25 mg/L; in the experiment with Staph. aur. FK 422, 0.25 mg/L; in the experiment on Streptoc. faecal. 27101 it was 0.25 mg/L; in the experiment on Streptoc. faecal. 9790 it was 0.25 mg/L; in the experiment with Pseudomonas aerug. W., 0.5 mg/L.
